Here are results for four molecules from US5314920A, “Ethynyl-alanine aryl/alkylsulfonyl-terminated amino-diol compounds for treatment of hypertension” (G. D. Searle & Co., priority 1992, dated 1994).

The test system of experiment [1] is hog renin. The conditions noted are these: after the injection of hog renin into nephrectomized rats; Gross et al, Science, 175, 656 (1971); cited from earlier work.
Experiment [2] concerns pepsin. The conditions noted are these: Umezawa et al, J. Antibiot. (Tokyo), 23, 259-262 (1970); cited from earlier work.
For experiment [3], the system named is cathepsin D. The conditions noted are these: Umezawa et al, J. Antibiot. (Tokyo), 23, 259-262 (1970); cited from earlier work.
The test system of experiment [4] is renin. The conditions noted are these: Umezawa et al, J. Antibiot. (Tokyo), 23, 259-262 (1970); cited from earlier work.
Experiment [5] concerns the target T1, human renin (Homo sapiens, UniProt P00797).
T1 construct: purchased National Institute for Biological Standards, London
T1 sequence (P00797 67-406): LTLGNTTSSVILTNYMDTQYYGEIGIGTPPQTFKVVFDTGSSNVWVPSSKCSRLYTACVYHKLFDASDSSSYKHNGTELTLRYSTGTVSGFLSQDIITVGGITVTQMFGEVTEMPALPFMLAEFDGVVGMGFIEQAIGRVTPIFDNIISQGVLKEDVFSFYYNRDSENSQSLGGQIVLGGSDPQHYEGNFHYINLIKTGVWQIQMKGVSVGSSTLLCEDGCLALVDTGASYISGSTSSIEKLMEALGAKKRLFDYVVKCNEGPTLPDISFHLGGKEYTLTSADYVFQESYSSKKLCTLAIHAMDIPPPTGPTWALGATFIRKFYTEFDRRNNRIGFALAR
Nature of the experiment: Human Renin Inhibition in vitro. The format is biochemical. Particulars: pH 7.4, 37° C., two hours, human plasma, angiotensin I by radioimmunoassay. Here is the method: Compounds of Formula I were evaluated as inhibitors of human renin in an vitro assay, as follows: This human renin inhibition test has been previously described in detail [Papaioannou et al., Clinical and Experimental Hypertension, A7 (9), 1243-1257 (1985)]. Human renin was obtained from the National Institute for Biological Standards, London. An incubation mixture was prepared containing the following components: in a total volume of 0.25 mL: 100 mM Tris-acetate buffer at pH 7.4, 25×10^-6 Goldblatt units of renin, 0.05 mL of plasma from human volunteers taking oral contraceptives, 6.0 mM Na-EDTA, 2.4 mM phenylmethyl sulfonyl fluoride, 1.5 mM 8-hydroxyquinoline, 0.4 mg/mL bovine serum albumin (BSA), and 0.024 mg/mL neomycin sulfate. This mixture was incubated for two hours at 37° C. in the presence or absence of renin inhibitors. The produced angiotensin I was determined by radioimmunoassay (New England Nuclear kit). Test compounds to be assayed were dissolved in DMSO and diluted with 100 mM Tris-acetate buffer at pH 7.4 containing 0.5% BSA to the appropriate concentration. The final concentration of organic solvent in the reaction mixture was less than 1%. Control incubations at 37° C. were used to correct for effects of organic solvent on renin activity.

Non-standard residues stand in square brackets, D forms with d. Residues, ends and D or L forms follow the SMILES beside them. *: point of attachment. Sta = CC(C)C[C@H](N)[C@@H](O)CC(=O)O; Isovaleryl = CC(C)CC(=O)*

For `CC(C)CC(=O)N[C@H](C(=O)N[C@H](C(=O)N[C@@H](CC(C)C)[C@@H](O)CC(=O)N[C@@H](C)C(=O)N[C@@H](CC(C)C)[C@@H](O)CC(=O)O)C(C)C)C(C)C` [pepstatin] (Isovaleryl-VV[Sta]A[Sta]-OH), the “blood pressure in vivo” value in experiment [1] is reported as “reduce blood pressure”. For the same molecule, the inhibitor of pepsin entry in experiment [2] is given as “inhibitor”. Besides, the “inhibitor of cathepsin D” value in experiment [3] is “inhibitor”. In addition, in experiment [4], the inhibitor of renin result was “inhibitor”.
Usually inhibition stands for the relative decrease from the control value, in per cent. Low readings indicate a weak effect, high ones a strong effect. As for `C#CC[C@H](NC(=O)CCS(=O)(=O)c1ccccc1)C(=O)N[C@@H](CC1CCCCC1)[C@@H](O)[C@@H](O)CC(C)C` [Example 3, N-[1S,1R*(cyclohexylmethyl)-2S*,3R*-dihydroxy-5-methylhexyl]-2R*-[[1-oxo-3-[phenylsulfonyl]propyl]amino]-4-pentynamide], testing at 0.1 µM in experiment [5] (@ 100 nM) gave an inhibition of 34%.
As usually defined, the IC50 is the concentration at which inhibition is half-maximal. Low values mean greater potency, high ones weaker potency. In the case of `C#CC[C@H](NC(=O)C(Cc1ccccc1)CS(=O)(=O)C(C)(C)C)C(=O)N[C@@H](CC1CCCCC1)[C@@H](O)[C@@H](O)CC(C)C` (stereo partly drawn) [Example 1, N-[[1R*-[[1S,1R*(cyclohexylmethyl)-2S*,3R*-dihydroxy-5-methylhexyl]amino]carbonyl]-3-butynyl]-α-[[(1,1-dimethylethyl)sulfonyl]methyl]benzenepropanamide], the IC50 in experiment [5] was 0.23 nM.
With `C#CC[C@H](NC(=O)[C@H](Cc1ccccc1)CS(=O)(=O)C(C)(C)C)C(=O)N[C@@H](CC1CCCCC1)[C@@H](O)[C@@H](O)CC(C)C` [Example 2, N-[[1R*-[[1S,1R*(cyclohexylmethyl)-2S*,3R*-dihydroxy-5-methylhexyl]amino]carbonyl]-3-butynyl]-αR*-[[(1,1-dimethylethyl)sulfonyl]methyl]benzenepropanamide], the concentration for half-maximal inhibition (IC50) in experiment [5] is 0.17 nM.
